Measurements: patent US9617602B2, “Methods and compositions for determining resistance to androgen receptor therapy” (Aragon Pharmaceuticals, Inc., priority 2012, dated 2017)

What was measured:
Type in all cases: cell-based, human
[1] = test system: Class 1 ARN-509- and MDV3100-resistant cell lines; assay: Proliferation assay (CellTiter-Glo), agonist and antagonist mode; details: for Agonist Proliferation Assay (% Viability): Class 1, 7 days; for viability at 0.0001 µM: Homo sapiens, 168 h, read-out: Antagonist Proliferation Assay (% Viability)
LNCaP/AR(cs) cells [2] = assay: Transcriptional reporter assay (probasin-luciferase)
Procedure: (§1) With the exception of the LNCaP/AR(cs)-Luc cells that contain an integrated androgen responsive reporter, cells were transiently transfected using Lipofectin® (Life Technologies) according to the manufacturer's protocol. […] Following transfection, the cells were incubated for 4 hours.
(§2) Following 48 hour incubation the medium was removed and the cells were lysed in 40 μL of lysis buffer (25 mM Tris Phosphate, 2 mM CDTA, 10% Glycerol, 0.5% Triton X-100, 2 mM DTT).

[3] = test system: Class 2 resistant cell lines; assay: as above; details: Class 2
Procedure: as §1, §2

LNCaP cells [4] = assay: as above
Procedure: as §1, §2

[5] = test system: Class 1 resistant cell lines; assay: as above; details: Class 1
Procedure: as §1, §2

LNCaP cells [6] = assay: Proliferation assay (CellTiter-Glo), agonist and antagonist mode; details: for viability at 0.0001 µM: Homo sapiens, 168 h, read-out: Antagonist Proliferation Assay (% Viability); for Agonist Proliferation Assay (% Viability): 7 days
LNCaP/AR(cs) cells [7] = assay: as above; details: for viability at 0.0001 µM: Homo sapiens, LNCaP/AR, 168 h, read-out: Antagonist Proliferation Assay (% Viability); for Agonist Proliferation Assay (% Viability): LNCaP/AR(cs), 7 days
[8] = test system: Class 2 MDV3100- and ARN-509-resistant cell lines; assay: as above; details: for Agonist Proliferation Assay (% Viability): Class 2, 7 days; for viability at 0.0001 µM: Homo sapiens, 168 h, read-out: Antagonist Proliferation Assay (% Viability)
LNCaP/AR(cs) cells [9] = assay: Endogenous gene transcriptional assay (real-time PCR of androgen responsive genes)
Procedure: (§3) Total RNA was isolated using the Aurum™ total RNA isolation kit (BIO-RAD, Hercules, Calif.). RNA (1 μg) was reverse transcribed using the iScript cDNA synthesis kit (BIO-RAD, Hercules, Calif.) to produce cDNA. Real-time PCR was performed using the Applied Biosystems 7900HT instrument and SYBR Green PCR Master Mix (Applied Biosystems, Foster City, Calif.). PCR reactions were performed in 6 μL according to the manufacturer's protocol and a thermocycle protocol of 95° C. for 10 minutes followed by 40 cycles of 95° C. for 15 seconds and 58° C. for 1 minute. Androgen responsive gene (PSA, SLUG, TMPRSS2, STEAP4, FKBP5, ORM1, NOV, FASN, NKX3.1, AMIGO2, BDNF, CAMK2N1, HPGD, NCAPD3, PLD1) expression was normalized to GAPDH expression and expressed relative to vehicle treatment of the parental cell line.
(§4) Gene expression was normalized to GAPDH as described above.

LNCaP ARN-509r1 cells = assay: as above; details: 1 nM R1881 or 30 μM compound, vehicle=1.00
Procedure: as §3, §4

LNCaP ARN-509r2 cells = assay: as above; details: 1 nM R1881 or 30 μM compound, vehicle=1.00
Procedure: as §3, §4

LNCaP cells [10] = assay: as above; details: 1 nM R1881 or 30 μM compound, vehicle=1.00
Procedure: as §3, §4

AR in LNCaP/AR(cs) cells = assay: AR chromatin immunoprecipitation (ChIP) of AR target genes; details: 1 nM R1881, 4 hours
From the text: The samples were amplified on the ABI 7900HT instrument.

LNCaP/AR-Luc cells = assay: Endogenous gene transcriptional assay (real-time PCR of androgen responsive genes); details: 1 nM R1881 or 30 μM compound, vehicle=1.00
Procedure: as §3, §4

[11] = [Antagonists] = 50 μM in presence of R1881
[12] = Table 4A, 1 nM R1881 or 30 μM compound, vehicle=1.00
[13] = Tables 9A/9B, 1 nM R1881, vehicle=1.00

## CC(O)(CS(=O)(=O)c1ccc(F)cc1)C(=O)Nc1ccc(C#N)c(C(F)(F)F)c1 (stereo not shown) [Bicalutamide, bicalutamide]
[1]; [Antagonists] = 10 μM
  Agonist Proliferation Assay (% Viability): ++ (‘++’ = >30)
[1]
  viability at 0.0001 µM: > 30%
LNCaP/AR(cs) cells [2]; [Antagonists] = 50 μM
  Agonist Transcriptional Reporter Assay (% Max Activity): + (‘+’ = <5)
LNCaP/AR(cs) cells [2]; [11]
  Antagonist Transcriptional Reporter Assay (% Max Activity): + (‘+’ = <5)
[3]; [Antagonists] = 50 μM
  Agonist Transcriptional Reporter Assay (% Max Activity): + (‘+’ = <5)
[3]; [11]
  Antagonist Transcriptional Reporter Assay (% Max Activity): + (‘+’ = <5)
LNCaP cells [4]; [Antagonists] = 50 μM
  Agonist Transcriptional Reporter Assay (% Max Activity): + (‘+’ = <5)
LNCaP cells [4]; [11]
  Antagonist Transcriptional Reporter Assay (% Max Activity): + (‘+’ = <5)
[5]; [Antagonists] = 50 μM
  Agonist Transcriptional Reporter Assay (% Max Activity): ++ (‘++’ = >5)
[5]; [11]
  Antagonist Transcriptional Reporter Assay (% Max Activity): ++ (‘++’ = >5)
LNCaP cells [6]
  viability at 0.0001 µM: < 30%
LNCaP cells [6]; [Antagonists] = 10 μM
  Agonist Proliferation Assay (% Viability): + (‘+’ = <30)
LNCaP/AR(cs) cells [7]
  viability at 0.0001 µM: < 30%
LNCaP/AR(cs) cells [7]; [Antagonists] = 10 μM
  Agonist Proliferation Assay (% Viability): + (‘+’ = <30)
[8]; [Antagonists] = 10 μM
  Agonist Proliferation Assay (% Viability): + (‘+’ = <30)
[8]
  viability at 0.0001 µM: > 30%

## C[C@]1(O)CC[C@H]2[C@@H]3CCC4=CC(=O)CCC4=C3C=C[C@@]21C [R1881, methyltrienolone]
LNCaP/AR(cs) cells [9]; [12]
  AMIGO2 gene expression: 0.54
  BDNF gene expression: 0.48
  CAM2KN1 gene expression: 0.05
  FASN gene expression: 7.11
  FKBP5 gene expression: 97.01
  HPGD gene expression: 183.55
  NCAPD3 gene expression: 93.05
  NKX3.1 gene expression: 8.82
  NOV gene expression: 0.04
  ORM1 gene expression: 3444.31
  PLD1 gene expression: 0.02
  PSA gene expression: 19.16
  SLUG gene expression: 89.88
  STEAP4 gene expression: 1314.23
  TMPRSS2 gene expression: 17.51
LNCaP/AR(cs) cells [9]; [13]
  AMIGO2 gene expression: 0.98
  BDNF gene expression: 0.86
  CAM2KN1 gene expression: 0.04
  FASN gene expression: 4.12
  FKBP5 gene expression: 100.51
  HPGD gene expression: 324.60
  NCAPD3 gene expression: 95.54
  NKX3.1 gene expression: 12.72
  NOV gene expression: 0.05
  ORM1 gene expression: 6987.01
  PLD1 gene expression: 0.03
  PSA gene expression: 22.14
  SLUG gene expression: 91.84
  STEAP4 gene expression: 1498.46
  TMPRSS2 gene expression: 35.42
[1]; [R1881] = 0.1 nM
  Agonist Proliferation Assay (% Viability): 100.0%
[1]
  viability at 0.0001 µM: 100%
[1]; high concentrations
  Effect of R1881 on proliferation of Class 1 cells: inhibits proliferation
LNCaP ARN-509r1 cells
  AMIGO2 gene expression: 0.21
  BDNF gene expression: 0.31
  CAM2KN1 gene expression: 0.01
  FASN gene expression: 3.12
  FKBP5 gene expression: 53.45
  HPGD gene expression: 61.39
  NCAPD3 gene expression: 90.51
  NKX3.1 gene expression: 8.11
  NOV gene expression: 0.03
  ORM1 gene expression: 1296.13
  PLD1 gene expression: 0.03
  PSA gene expression: 85.63
  SLUG gene expression: 164.28
  STEAP4 gene expression: 1184.45
  TMPRSS2 gene expression: 37.27
LNCaP/AR(cs) cells [2]; [R1881] = 10 nM
  Agonist Transcriptional Reporter Assay (% Max Activity): >90%
  Antagonist Transcriptional Reporter Assay (% Max Activity): >90%
LNCaP ARN-509r2 cells
  AMIGO2 gene expression: 0.55
  BDNF gene expression: 0.47
  CAM2KN1 gene expression: 0.02
  FASN gene expression: 4.82
  FKBP5 gene expression: 48.50
  HPGD gene expression: 59.30
  NCAPD3 gene expression: 54.95
  NKX3.1 gene expression: 10.20
  NOV gene expression: 0.07
  ORM1 gene expression: 625.99
  PLD1 gene expression: 0.02
  PSA gene expression: 7.89
  SLUG gene expression: 77.17
  STEAP4 gene expression: 377.41
  TMPRSS2 gene expression: 15.14
[3]; [R1881] = 10 nM
  Agonist Transcriptional Reporter Assay (% Max Activity): >90%
  Antagonist Transcriptional Reporter Assay (% Max Activity): >90%
LNCaP cells [10]
  AMIGO2 gene expression: 0.68
  BDNF gene expression: 0.40
  CAM2KN1 gene expression: 0.13
  FASN gene expression: 5.58
  FKBP5 gene expression: 54.95
  HPGD gene expression: 100.43
  NCAPD3 gene expression: 104.69
  NKX3.1 gene expression: 30.06
  NOV gene expression: 0.15
  ORM1 gene expression: 873.10
  PLD1 gene expression: 0.02
  PSA gene expression: 47.84
  SLUG gene expression: 129.79
  STEAP4 gene expression: 639.15
  TMPRSS2 gene expression: 22.16
LNCaP cells [4]; [R1881] = 10 nM
  Agonist Transcriptional Reporter Assay (% Max Activity): >90%
  Antagonist Transcriptional Reporter Assay (% Max Activity): >90%
[5]; [R1881] = 10 nM
  Agonist Transcriptional Reporter Assay (% Max Activity): >90%
  Antagonist Transcriptional Reporter Assay (% Max Activity): >90%
LNCaP cells [6]
  viability at 0.0001 µM: 100%
LNCaP cells [6]; [R1881] = 0.1 nM
  Agonist Proliferation Assay (% Viability): 100.0%
AR in LNCaP/AR(cs) cells
  AR DNA binding (ChIP), LNCaP/AR(cs) cells: promoted AR DNA
LNCaP/AR-Luc cells
  AMIGO2 gene expression: 0.54
  BDNF gene expression: 0.18
  CAM2KN1 gene expression: 0.11
  FASN gene expression: 3.48
  FKBP5 gene expression: 20.82
  HPGD gene expression: 2.41
  NCAPD3 gene expression: 17.27
  NKX3.1 gene expression: 11.24
  NOV gene expression: 0.47
  ORM1 gene expression: 7.89
  PLD1 gene expression: 0.15
  PSA gene expression: 2.10
  SLUG gene expression: 48.84
  STEAP4 gene expression: 20.25
  TMPRSS2 gene expression: 3.46
LNCaP/AR(cs) cells [7]
  viability at 0.0001 µM: 100%
LNCaP/AR(cs) cells [7]; [R1881] = 0.1 nM
  Agonist Proliferation Assay (% Viability): 100.0%
[8]; [R1881] = 0.1 nM
  Agonist Proliferation Assay (% Viability): 100.0%
[8]
  viability at 0.0001 µM: 100%
